Test results reported in ChEMBL document CHEMBL1155983, “Synthesis of novel [1,2]-diamines with antituberculosis activity” (Bioorg Med Chem Lett, 2009).
≈ marks a conversion by molar mass, not a printed value.

System: not listed separately
Experiment: Oral bioavailability in dog
Type: ADME, organism-based, Canis lupus familiaris
Settings: in vivo

With CC(C)=CCC/C(C)=C/CNCCNC1C2CC3CC(C2)CC1C3.Cl.Cl (centres undefined) the bioavailability was 3.8%.

System: not listed separately
Experiment: Oral bioavailability in rat
Type: ADME, organism-based
Settings: in vivo

Molecule CC(C)=CCC/C(C)=C/CNCCNC1C2CC3CC(C2)CC1C3.Cl.Cl (centres undefined) has a bioavailability of 12%.

System: Mycobacterium tuberculosis
Experiment: Antituberculosis activity against Mycobacterium tuberculosis H37Rv by microbroth dilution assay
Type: functional
Settings: not given

In order of rising MIC:
1. CC(C)=CCC/C(C)=C/CNCCNC1C2CC3CC(C2)CC1(F)C3 (centres undefined)  0.3 µM (≈ 0.105 µg/mL)
2. COC12CC3CC(CC(C3)C1NCCNC/C=C(\C)CCC=C(C)C)C2 (centres undefined)  0.5 µM (≈ 0.18 µg/mL)
3. CC(C)=CCC/C(C)=C/CNCCNC1C2CC3CC(C2)CC1C3.Cl.Cl (centres undefined)  0.6 µM
4. CC(C)=CCC/C(C)=C/CNCCNC1C2CC3CC(C2)CC1(O)C3 (centres undefined)  0.6 µM (≈ 0.208 µg/mL)
5. CC(C)=CCC/C(C)=C/CNCCNC1C2CC3CC1CC(F)(C3)C2 (centres undefined)  0.6 µM (≈ 0.209 µg/mL)
6. CC(C)=CCC/C(C)=C/C(Cc1ccccc1)NCCNC1C2CC3CC(C2)CC1C3 (centres undefined)  1 µM (≈ 0.421 µg/mL)
7. CC(C)=CCC/C(C)=C/C(C)NCCNC1C2CC3CC(C2)CC1C3 (centres undefined)  1.2 µM (≈ 0.414 µg/mL)
8. CCC(/C=C(\C)CCC=C(C)C)NCCNC1C2CC3CC(C2)CC1C3 (centres undefined)  1.2 µM (≈ 0.43 µg/mL)
9. COC12CC3CC(C1)C(NCCNC/C=C(\C)CCC=C(C)C)C(C3)C2 (centres undefined)  1.7 µM (≈ 0.613 µg/mL)
10. CC(C)=CCC/C(C)=C/C(Cc1ccc(F)cc1)NCCNC1C2CC3CC(C2)CC1C3 (centres undefined)  3 µM (≈ 1.32 µg/mL)
11. CC(C)=CCC/C(C)=C/C(Cc1ccc(OC(F)(F)F)cc1)NCCNC1C2CC3CC(C2)CC1C3 (centres undefined)  5.2 µM (≈ 2.62 µg/mL)
12. CC(C)=CCC/C(C)=C/CNCCNC1C2CC3CC1CC(O)(C3)C2 (centres undefined)  8.6 µM (≈ 2.98 µg/mL)
